The structures appear in SMILES notation.

A short description of the data set: Dissolution of SN-38 in phosphate buffer pH 6.8. The note with it: FIG. 4. It is filed as physicochemical. The protocol: The kinetics of drug release can be determined by measuring the amount of drug released into phosphate buffer pH 6.8 at 37° C. via conventional high pressure liquid chromatography (HPLC).
The experiment was repeated in a solution at a higher pH, specifically pH 6.8. Briefly, the dissolution of SN-38 was measured either as SN-38 alone or from SN-38 containing micelles prepared as described in Example 2. The freeze dried cake produced in Example 2 was added to phosphate buffer pH 6.8 and the drug concentration was measured under the same conditions as the experiment using aqueous HCl at pH 1.2.

Consider `CCc1c2c(nc3ccc(O)cc13)-c1cc3c(c(=O)n1C2)COC(=O)[C@]3(O)CC` [SN-38, 7-ethyl-10-hydroxy-camptothecin], for which the dissolution behaviour entry is “rapidly precipitates from solution”.

Values taken from US20090258071A1, “COMPOSITIONS AND METHODS FOR PH TARGETED DRUG DELIVERY” (Labopharm, Inc., priority 2006, published 2009).
